Consider 3 compounds from US20190065668A1, “STRUCTURE OF […] IN COMPLEX WITH AN INHIBITOR AND USES THEREOF” (priority 2015, published 2019).

Where a name gives a salt, the structure may show the parent alone. Read-outs that look alike come from different tables or passages of the source.

The target of assay [1] is T1, recombinant P. falciparum plasmepsin V (Plasmodium falciparum, UniProt Q8I6Z5).
T1 construct: FLAG tag + SUMO domain + TEV protease cleavage site (secreted via signal peptide) (N, cleaved yes); made in house; host or cells: sf21 insect cells
T1 sequence (Q8I6Z5 80-528): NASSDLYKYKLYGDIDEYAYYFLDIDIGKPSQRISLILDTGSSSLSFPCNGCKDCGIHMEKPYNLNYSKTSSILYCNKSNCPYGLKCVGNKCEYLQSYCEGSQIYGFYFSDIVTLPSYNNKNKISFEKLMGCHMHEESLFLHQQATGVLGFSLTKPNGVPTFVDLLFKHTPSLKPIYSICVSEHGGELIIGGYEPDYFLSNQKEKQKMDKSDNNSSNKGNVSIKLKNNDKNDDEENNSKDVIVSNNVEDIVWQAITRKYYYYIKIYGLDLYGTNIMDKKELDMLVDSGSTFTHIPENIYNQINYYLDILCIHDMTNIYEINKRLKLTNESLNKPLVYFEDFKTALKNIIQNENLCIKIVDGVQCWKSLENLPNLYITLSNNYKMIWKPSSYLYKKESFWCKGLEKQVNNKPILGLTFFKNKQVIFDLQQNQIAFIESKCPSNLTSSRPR
In words: Fluorogenic PEXEL cleavage assay (KAHRP FRET peptide), inhibition of recombinant P. falciparum plasmepsin V. Format: biochemical. The method, then:
(§1) PEXEL cleavage assays (20 μl total volume) consisted of 1 ng/well of P. vivax plasmepsin V or 1.5 ng/well of P. falciparum plasmepsin V in buffer (25 mM Tris.HCl, 25 mM MES, pH 6.4) with 5 μM FRET peptide substrate (DABCYL-[…]-E-EDANS (SEQ ID NO:7) or peptides with the sequence DABCYL-[…]-E-EDANS (SEQ ID NO:8) or DABCYL-[…]-E-EDANS (SEQ ID NO:9)) (Sleebs, B. E. et al. 2014a; see FIG. 9). Samples were incubated at 37° C. for 120 min and measured using an Envision plate (Perkin-Elmer) reader (Ex 340 nm/Em 490 nm).
Reactions comprised of a fluorescent peptide of nine amino acids containing the PEXEL sequence (RTLAQ) from KAHRP. The KAHRP PEXEL peptide substrate DABCYL-[…]-E-EDANS (SEQ ID NO:7) was obtained commercially and used at a final assay concentration of 7.5 μM.
The end-point for all assays was set within the linear range of activity (approximately 1 hr.).
Tween-20 was used at 0.005% final assay concentration. Final assay buffer concentration was as follows: 25 mM Tris HCl, 25 mM MES (pH 6.4). Final assay volume was 20 μL.
An 11-point 1/3 serial dilution of compounds was generated using DMSO as a diluent (final assay concentration of 1%).
Assay reaction was incubated for 60 min at 37° C. and read using a fluorescence plate reader (Ex 340 nm, Em 495 nm). […]

Assay [2] has as its system plasmepsin V cleavage of the PEXEL in PfEMP3-GFP. Description: PfEMP3-GFP PEXEL processing in P. falciparum trophozoites (immunoblot / 35S radiolabelling and immunoprecipitation). Format: cell-based, Plasmodium falciparum. The text has this:
P. falciparum 3D7 expressing the PEXEL protein erythrocyte membrane protein 3 (PfEMP3) fused to green fluorescent protein (GFP) (PfEMP3-GFP) was generated previously (Boddey, J. A. et al, 2010) (see FIG. 2C).
Membranes were probed with mouse a-GFP (Roche; 1:1000), rabbit a-Aldolase (1:1000) or rabbit a-HSP70 (1:4000) antibodies followed by horseradish peroxidase-conjugated secondary antibodies (Silenius; 1:2000) and visualized using enhanced chemiluminescence (Amersham). To radiolabel P. falciparum proteins, magnet-purified trophozoites expressing PfEMP3-GFP were treated with 10 μM inhibitors for 3 hr. […] PfEMP3-GFP protein species were then immunoprecipitated from parasite lysates solubilized in 1% Triton X-100/PBS containing 1× complete protease inhibitors (Roche) using anti-GFP agarose (MBL) for 2 hours at 4° C. and proteins were resolved by SDS-PAGE, visualized by autoradiography and quantified using a GS-800 Calibrated Densitometer (Bio-Rad) (Sleebs, B. E. et al. 2014a).
For orientation: A western blot detects proteins with antibodies after separation by electrophoresis.

In assay [3] the test system is export of PfEMP3-GFP to P. falciparum-infected erythrocytes. In words: Pulse chase of PfEMP3-GFP processing and export to infected erythrocytes (tetanolysin release). As to conditions: for export of PfEMP3-GFP to parasite-infected erythrocytes: 10 μM pre-treatment 3 hr.
The target in assay [4] is T2, P. vivax plasmepsin V (Plasmodium vivax, UniProt A5K302).
T2 construct: gp67 signal peptide + FLAG tag + SUMO domain + TEV protease cleavage site (N, cleaved yes); made in house; host or cells: High Five insect cells
T2 sequence (A5K302 33-476, looked up, natural form): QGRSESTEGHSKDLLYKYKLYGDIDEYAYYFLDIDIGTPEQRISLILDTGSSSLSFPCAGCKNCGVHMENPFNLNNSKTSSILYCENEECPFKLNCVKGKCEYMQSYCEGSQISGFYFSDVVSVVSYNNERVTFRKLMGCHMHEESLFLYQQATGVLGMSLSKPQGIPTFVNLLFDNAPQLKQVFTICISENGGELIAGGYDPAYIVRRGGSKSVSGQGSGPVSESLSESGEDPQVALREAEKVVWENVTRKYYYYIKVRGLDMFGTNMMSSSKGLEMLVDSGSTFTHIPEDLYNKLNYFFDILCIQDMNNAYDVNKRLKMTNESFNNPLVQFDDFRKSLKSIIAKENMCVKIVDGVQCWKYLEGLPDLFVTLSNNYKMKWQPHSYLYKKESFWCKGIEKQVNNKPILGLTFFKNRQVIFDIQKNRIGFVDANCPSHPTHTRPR
Description: Surface plasmon resonance (Biacore 4000) direct binding. As to conditions: SPR; for Kd: 25° C., 1:1 interaction model, read-out: affinity (KD) for P. vivax plasmepsin V; for kd (off-rate): P. vivax plasmepsin V. The method, then: Surface plasmon resonance was performed using a Biacore 4000 (GE Healthcare). Plasmepsin V was immobilized on a Series S CM5 sensor chip using amine-coupling chemistry. The surfaces of flow cells were activated for 10 min with a 1:1 mixture of 0.1 M NHS (N-hydroxysuccinimide) and 0.1 M EDC (3-(N,N-dimethylamino)propyl-N-ethylcarbodiimide) at a flow rate of […]. […] Compounds were allowed to associate and dissociate for 250 s and 600 s, respectively. Data were collected at a rate of 10 Hz and fit to a 1:1 interaction model using the Biacore 4000 Evaluation Software Version 1.0.

The test system of the next assay is P. falciparum parasites. In words: P. falciparum growth assay, parasitaemia at 72 hr by flow cytometry. Background: A flow cytometer gives signals particle by particle.
Assay [5] deals with T2, P. vivax plasmepsin V. In words: Fluorogenic PEXEL cleavage assay (KAHRP FRET peptide), inhibition of recombinant P. vivax plasmepsin V. Format: biochemical. The conditions noted are these: KAHRP fluorogenic substrate 7.5 μM, 60 min, 37° C., pH 6.4.
In assay [6] the test system is plasmepsin V cleavage of the PEXEL in PfEMP3-GFP. The conditions noted are these: PfEMP3-GFP processing; from Sleebs, B. E. et al. 2014; cited from earlier work.
Assay [7] deals with T1, recombinant P. falciparum plasmepsin V. Description: Kinetic characterisation of recombinant plasmepsin V (Michaelis-Menten / Lineweaver-Burk), P. falciparum enzyme. Format: biochemical. The conditions noted are these: fluorogenic PEXEL substrate from KAHRP. Here is the method:
(§2) The in vitro activity of recombinant P. falciparum and P. vivax plasmepsin V was assessed against a fluorogenic peptide of nine amino acids that contained the PEXEL sequence from knob-associated histidine-rich protein (“KAHRP”) (DABCYL-[…]-E-EDANS; SEQ ID NO: 7).
(§3) Values for Km were derived from both the inverse Michaelis-Menten and the Lineweaver-Burk plots. These values were of the same magnitude for each enzyme and are also similar to the Km derived from the activity of another recombinant form of P. falciparum plasmepsin V on a different PEXEL substrate (Xiao, H. et al. 2014).
as §1

Assay [8] has as its target T2, P. vivax plasmepsin V. Description: Kinetic characterisation of recombinant plasmepsin V (Michaelis-Menten / Lineweaver-Burk), P. vivax enzyme. Format: biochemical. As to conditions: fluorogenic PEXEL substrate from KAHRP. Here is the method:
as §2, §3, §1

Where [9] appears, read: read-out: EC50, inhibition of growth of P. falciparum (3D7) parasites, 3D7, chloroquine-sensitive strain, 72 hr.

The Kd is the equilibrium constant for the complex coming apart. By EC50 is commonly meant the concentration giving half of the maximal effect. For the compound `CC(C)C[C@H](NC(=O)[C@@H](NC(=O)[C@H](CCON=C(N)N)NC(=O)OCc1ccccc1)C(C)C)[C@@H](O)CC(=O)NCCc1ccccc1` [WEHI-842, Cbz-Cav(NH2)—Val-Sta-NH(CH2)2Ph.TFA], the “increased potency against recombinant P. falciparum plasmepsin V compared to WEHI-916” value in assay [1] (ratio of IC50 values) was found to be 15 fold. In addition, in assay [2] (10 μM, 3 hours, immunoblot), the “inhibition of plasmepsin V cleavage of PfEMP3-GFP” value was “potently inhibited plasmepsin V cleavage of PfEMP3-GFP”. Also, in assay [2] (PfEMP3-GFP processing), the “time required for optimal inhibition of plasmepsin V in parasites” value amounted to 3 h. Besides, the “degree of PEXEL processing inhibition compared to WEHI-916” value in assay [2] (PfEMP3-GFP, immunoblot) was 10 fold. For the same compound, the “inhibition of PEXEL cleavage (accumulation of 35 kDa full-length PfEMP3-GFP)” value in assay [2] (parasites expressing PfEMP3-GFP, immunoblot) is recorded as “efficiently inhibited PEXEL cleavage”. Further, the “reversibility of inhibition of PEXEL cleavage after removal of inhibitor” value in assay [3] (10 μM 3 hr, then inhibitor-free medium 30 and 60 min) was “reversible”. Moreover, the “export of PfEMP3-GFP to parasite-infected erythrocytes” value in assay [3] (chase 20, 40 and 60 min) is “dramatically reduced export”; in assay [3] (chase 120 min), “Efficient export of PfEMP3-GFP returned”. Moreover, the Kd at P. vivax plasmepsin V [4] was 13.4 nM. Moreover, the “kd (off-rate)” value at P. vivax plasmepsin V [4] is on record as 1.11 E-03 1/s. In addition, the EC50 in the assay with P. falciparum parasites (setting [9]) amounted to 400 nM; in the assay on P. falciparum parasites (read-out: EC50, inhibition of growth of P. falciparum CS2, CS2, 72 hr) it was 830 nM; in the assay on P. falciparum parasites (read-out: EC50, inhibition of growth of P. falciparum NF54, NF54, 72 hr), 470 nM; in the assay on P. falciparum parasites (read-out: EC50, inhibition of growth of P. falciparum W2mef, W2mef (chloroquine-resistant), 72 hr), 640 nM.
Usually IC50 stands for the concentration that gives 50% inhibition. As to `CC(C)C[C@H](NC(=O)[C@@H](NC(=O)[C@H](CCCNC(=N)N)NS(=O)(=O)Cc1ccccc1)C(C)C)[C@@H](O)CC(=O)NCCc1ccccc1` [WEHI-916, reference compound], the IC50 in [1] (KAHRP fluorogenic substrate 7.5 μM, 60 min, 37° C., pH 6.4, read-out: IC50 against recombinant P. falciparum plasmepsin V) is 12.9 nM; at P. vivax plasmepsin V [5], 8.2 nM. The Kd on P. vivax plasmepsin V [4] was 42 nM. The “kd (off-rate)” value on P. vivax plasmepsin V [4] is recorded as 2.47 E-03 1/s. For the same compound, the EC50 worked out at 5000 nM with P. falciparum parasites (read-out: EC50, blocking P. falciparum growth, summary statement, strain not stated) and 5000 nM in the assay with P. falciparum parasites (setting [9]). Further, the “time required for optimal inhibition of plasmepsin V in parasites” value in assay [6] was 5 h.
As usually defined, the Km is the substrate concentration at which the rate is half of its maximum. As to “DABCYL-RNKRTLAQKQ-E-EDANS [fluorogenic PEXEL substrate from KAHRP]”, the Km worked out at 20.2 µM in assay [7] and 6 µM on P. vivax plasmepsin V [8].
